Earlier results, collected in patent US20060099690A1, “Extraction, purification and conversion of flavonoids from plant biomass” (Her Majesty the Queen in Right of Canada, as Repre, priority 2002, published 2006).

Key:
[1] = tested on: mouse hippocampal cell line HT-22 and rat primary neurons; settings: HT-22 cells and rat primary neurons
[2] = four hours after a meal; hydrolyzed plasma; 3'- and 4'-methylquercetin
serum triglycerides = settings: 0.5% quercetin in diet; mice or rats
pain transmission = settings: antinociceptive activity

Structure (SMILES)	protection from oxidative stress caused by glutamate [1]	total concentration of metabolites in the plasma [2]	effect on serum triglycerides (serum triglycerides)	dose with the same effect as 2.5 mg of morphine sulfate/Kg (pain transmission)
O=c1c(O)c(-c2ccc(O)c(O)c2)oc2cc(O)ccc12 [fisetin]	quite protective			
C[C@@H]1O[C@@H](OC[C@H]2O[C@@H](Oc3c(-c4ccc(O)c(O)c4)oc4cc(O)cc(O)c4c3=O)[C@H](O)[C@@H](O)[C@@H]2O)[C@H](O)[C@H](O)[C@H]1O [rutin]		2.5 µM		
O=c1c(O)c(-c2ccc(O)c(O)c2)oc2cc(O)cc(O)c12 [quercetin]	quite protective	11.2 µM	significant lowering	50 mg/Kg body weight
O=c1cc(-c2ccc(O)cc2)oc2cc(O)cc(O)c12 [apigenim]	inactive			
C[C@@H]1O[C@@H](Oc2c(-c3ccc(O)c(O)c3)oc3cc(O)cc(O)c3c2=O)[C@H](O)[C@H](O)[C@H]1O [quercitrin, quercetin 3-rhamnoside, reference compound]		failed to detect any metabolites		
O=c1c(O)c(-c2ccc(O)cc2)oc2cc(O)cc(O)c12 [kaempferol]	quite protective			
O=c1c(O[C@@H]2O[C@H](CO)[C@@H](O)[C@H](O)[C@H]2O)c(-c2ccc(O)c(O)c2)oc2cc(O)cc(O)c12 [isoquercitrin, quercetin-3-O-beta glycoside]		33.2 µM		
